16 molecules from patent US5686477A, “5-(arloxymethyl)oxazolines” (Adir et Compagnie, priority 1994, dated 1997) can be followed below.

One may read the Ki as the dissociation constant of the complex between target and ligand, obtained from inhibition or displacement. Broadly, the pKa is the negative logarithm of the acid dissociation constant. Usually logP stands for a log measure of how a compound divides between an organic and an aqueous phase. Read a low logP as lower lipophilicity.

SMILES strings stand for the structures.

The target of one series is imidazoline I1-receptors. Description: Binding to imidazoline I1-receptors, displacement of [3H]-clonidine (in vitro). Particulars: [3H]-clonidine + 10 μM norepinephrine; bovine lateral reticular nucleus. An excerpt:
(§1) EXAMPLE A: PROFILE OF BINDING TO IMIDAZOLINE I1 - AND I2 -RECEPTORS. (IN VITRO STUDY)
(§2) To measure in vitro the binding affinity of the compounds of the invention for I1 - and I2 -receptors, by determining the capacity of those compounds to displace specific radioligands of the imidazoline I1 - and I2 -receptors.
(§3) The following Table gives the radioligand used to label the receptor, the compound and the concentration selected to determine the non-specific fraction and the tissue selected.
(§4) Radioligand non specific
10 μM of cold clonidine

For another series, the target named is imidazoline I2-receptors. Description: Binding to imidazoline I2-receptors, displacement of [3H]-idazoxane (in vitro). Particulars: [3H]-idazoxane + 10 μM norepinephrine; rabbit renal cortex.
Excerpt: as §1, §2, §3, §4
10^-5 M rabbit renal cortex
In general terms: Displacement assays read how much labelled ligand stays bound in the presence of the test substance.

Another series can be described thus: dipole moment. The series is classed as physicochemical.

Take `Cc1ccccc1OCC1CN=C(N)O1` (racemic) [Example 1, 5-[(2-METHYLPHENOXY)METHYL]-4,5-DIHYDRO-OXAZOL-2-YLAMINE]: the Ki at imidazoline I1-receptors turned out to be 8.5 nM; at imidazoline I2-receptors it was 920 nM. For the same molecule, the results for the dipole moment in “dipole moment” (benzene) and in “dipole moment” (dioxane) were 1.80 D and 2.07 D, respectively. The pKa in the series “pKa” came out at 8.54. Also, the logP in “log Po/w” was 1.69.

Regarding `N#Cc1ccccc1OCC1CN=C(N)O1` (stereo not drawn) [Example 22, 5-[(2-CYANOPHENOXY)METHYL]-4,5-DIHYDRO-OXAZOL-2-YLAMINE], the Ki was 48 nM on imidazoline I1-receptors and 2400 nM on imidazoline I2-receptors.

Turning to `CC(C)c1ccccc1OCC1CN=C(N)O1` (stereo not drawn) [Example 19, 5-[(2-ISOPROPYLPHENOXY)METHYL]-4,5-DIHYDRO-OXAZOL-2-YLAMINE], the Ki is 120 nM at imidazoline I1-receptors and 2100 nM on imidazoline I2-receptors.

Take `NC1=NCC(COc2ccccc2[N+](=O)[O-])O1` (stereo not drawn) [Example 21, 5-[(2-NITROPHENOXY)METHYL]-4,5-DIHYDRO-OXAZOL-2-YLAMINE]: the values for the Ki on imidazoline I1-receptors and on imidazoline I2-receptors were 500 nM and 3900 nM, respectively.

In the case of `NC1=NCC(COc2ccccc2F)O1` (stereo not drawn) [Example 20, 5-[(2-FLUOROPHENOXY)METHYL]-4,5-DIHYDRO-OXAZOL-2-YLAMINE], the Ki on imidazoline I1-receptors is 210 nM; on imidazoline I2-receptors, 1300 nM.

`Cc1ccccc1OCC1CN=C(N)O1` (single isomer, unassigned) [Example 28, 5-[(2-METHYLPHENOXY)METHYL]-4,5-DIHYDRO-OXAZOL-2-YLAMINE]: the Ki at imidazoline I1-receptors worked out at 370 nM; at imidazoline I2-receptors, 13000 nM.

Take `Cc1ccccc1OCC1CN=C(N)O1` (single isomer, unassigned) [Example 29, 5-[(2-METHYLPHENOXY)METHYL]-4,5-DIHYDRO-OXAZOL-2-YLAMINE]: the Ki on imidazoline I1-receptors was 5.8 nM; at imidazoline I2-receptors it was 7500 nM.

As for `Cc1ccc(C)c(OCC2CN=C(N)O2)c1` (stereo not drawn) [Example 16, 5-[(2,5-DIMETHYLPHENOXY)METHYL]-4,5-DIHYDRO-OXAZOL-2-YLAMINE], the Ki on imidazoline I1-receptors came out at 85 nM; at imidazoline I2-receptors it was 1600 nM.

Consider `CCNC1=NCC(COc2ccccc2C)O1` (stereo not drawn) [Example 27, N-ETHYL-N-[5-(2-METHYLPHENOXY)METHYL-4,5-DIHYDRO-OXAZOL-2-YL]AMINE], for which the Ki on imidazoline I1-receptors worked out at 170 nM; on imidazoline I2-receptors, 1000 nM.

As to `CCCNC1=NCC(COc2ccccc2C)O1` (stereo not drawn) [Example 26, N-n-PROPYL-N-[5-(2-METHYLPHENOXY)METHYL-4,5-DIHYDRO-OXAZOL-2-YL]AMINE], the Ki is 670 nM on imidazoline I1-receptors and 1400 nM on imidazoline I2-receptors.

Turning to `Cc1cccc(OCC2CN=C(N)O2)c1C` (stereo not drawn) [Example 13, 5-[(2,3-DIMETHYLPHENOXY)METHYL]-4,5-DIHYDRO-OXAZOL-2-YLAMINE], the Ki at imidazoline I1-receptors is 64 nM; on imidazoline I2-receptors it was 450 nM.

As for `CCc1ccccc1OCC1CN=C(N)O1` (stereo not drawn) [Example 18, 5-[(2-ETHYLPHENOXY)METHYL]-4,5-DIHYDRO-OXAZOL-2-YLAMINE], the Ki on imidazoline I1-receptors amounted to 100 nM; at imidazoline I2-receptors, 1800 nM.

Consider `Cc1cc(Cl)ccc1OCC1CN=C(N)O1` (stereo not drawn) [Example 17, 5-[(4-CHLORO-2-METHYLPHENOXY)METHYL]-4,5-DIHYDRO-OXAZOL-2-YLAMINE], for which the Ki amounted to 120 nM at imidazoline I1-receptors and 1000 nM on imidazoline I2-receptors.

Turning to `CC(=O)c1ccccc1OCC1CN=C(N)O1` (stereo not drawn) [Example 23, 5-[(2-ACETYLPHENOXY)METHYL]-4,5-DIHYDRO-OXAZOL-2-YLAMINE], the results for the Ki at imidazoline I1-receptors and at imidazoline I2-receptors were 170 nM and 7700 nM, respectively.

In the case of `Cc1cccc(C)c1OCC1CN=C(N)O1` (stereo not drawn) [Example 9, 5-[(2,6-DIMETHYLPHENOXY)METHYL]-4,5-DIHYDRO-OXAZOL-2-YLAMINE], the Ki on imidazoline I1-receptors was 57 nM; on imidazoline I2-receptors it was 2100 nM.

Turning to `Cc1ccc(OCC2CN=C(N)O2)c(C)c1` (stereo not drawn) [Example 10, 5-[(2,4-DIMETHYLPHENOXY)METHYL]-4,5-DIHYDRO-OXAZOL-2-YLAMINE], the Ki is 160 nM at imidazoline I1-receptors and 3900 nM at imidazoline I2-receptors.
